Measured values taken from US5049570A, “Pyridylphenyl nitrogen heterocycle-substituted carbinols and derivatives thereof with anti-inflammatory activity” (Du Pont Merck Pharmaceutical Company, priority 1990, dated 1991).

System: inflammation induced by tetradecanoyl phorbol acetate (TPA), ears of mice
Experiment: TPA model: inhibition of tetradecanoyl phorbol acetate (TPA)-induced ear swelling (edema) in mice
Format: in vivo
Parameters: dose or concentration left out as unconfirmed
Conditions: Mus musculus, topical, 4 h, applied to the ears in a vehicle such as acetone, edema measured four hours later, read-out: % inhibition of control swelling
Source text: One such model is inflammation induced by tetradecanoyl phorbol acetate (TPA), modified from the method of Kuehl et al., Nature, 1977, 265, 170; and Van Arman, Clin. Pharmacol. Ther., 1974, 16, 900. The TPA model mimics many of the inflammatory changes which occur in human diseases such as psoriasis, since elevated levels of inflammatory arachidonic acid metabolites are found and an influx of polymorphonuclear leukocytes is observed.
The test procedure used to evaluate the compounds of formula (I) is as follows: the test compound […] was applied to the ears of mice in an appropriate vehicle, such as acetone, and then TPA, the inflammatory stimulus was applied to the right ear. Four hours later, the edema was measured by removing standard size discs from the ears using a biopsy punch. The weights of the ears were determined, and the suppression of the swelling observed in animals not treated with the test compound was determined.

SMILES | inhibition in vivo [%]
COc1ccc(C(O)(Cn2ccnc2)c2ccc(-c3ccncc3)cc2)cc1 (centres unmarked) [Example 12, 1-(4-methoxyphenyl)-1-[4-(4-pyridyl)phenyl]-2-(1-imidazolyl)ethanol] | 74
OC(Cn1ccnc1)(c1ccc(F)cc1)c1cccc(-c2ccccn2)c1 (centres unmarked) [Example 6] | 61
OC(Cn1ccnc1)(c1ccc(-c2ccncc2)cc1)c1ccccc1Cl (centres unmarked) [Example 10] | 63
OC(Cn1ccnc1)(c1ccc(F)cc1)c1cccc(-c2cccnc2)c1 (centres unmarked) [Example 7] | 64
OC(Cn1ccnc1)(c1ccccc1)c1ccc(-c2ccncc2)cc1 (centres unmarked) [Example 9] | 46
Cc1ccc(C(O)(Cn2ccnc2)c2ccc(-c3ccncc3)cc2)cc1 (centres unmarked) [Example 11, 1-(4-methylphenyl)-1-[4-(4-pyridyl)phenyl]-2-(1-imidazolyl)ethanol] | 62
OC(Cn1ccnc1)(c1ccc(-c2ccncc2)cc1)c1ccc(C(F)(F)F)cc1 (centres unmarked) [Example 21, 1-(4-trifluoromethylphenyl)-1-[4-(4-pyridyl)phenyl]-2-(1-imidazolyl)ethanol] | 66
OC(Cn1ccnc1)(c1ccc(F)cc1)c1ccc(-c2ccccn2)cc1 (centres unmarked) [Example 3] | 63
OC(Cn1ccnc1)(c1ccc(-c2ccncc2)cc1)c1ccc(F)cc1F (centres unmarked) [Example 5, 1-(2,4-difluorophenyl)-1-[4-(4-pyridyl)phenyl]-2-(1-imidazolyl)ethanol] | 73
OC(Cn1ccnc1)(c1ccc(-c2cccnc2)cc1)c1ccc(F)cc1F (centres unmarked) [Example 4] | 52
OC(Cn1ccnc1)(c1ccc(-c2ccccn2)cc1)c1ccc(F)cc1F (centres unmarked) [Example 2] | 51
OC(Cn1ccnc1)(c1ccc(F)cc1)c1ccc(-c2ccncc2)cc1 (centres unmarked) [Example 1, 1-(4-fluorophenyl)-1-[4-(4-pyridyl)phenyl]-2-(1-imidazolyl)ethanol] | 72
OC(Cn1ccnc1)(c1ccc(Cl)cc1)c1ccc(-c2ccncc2)cc1 (centres unmarked) [Example 22, 1-(4-chlorophenyl)-1-[4-(4-pyridyl)phenyl]-2-(1-imidazolyl)ethanol] | 79
OC(Cn1ccnc1)(c1ccc(F)cc1)c1cccc(-c2ccncc2)c1 (centres unmarked) [Example 8, 1-(4-fluorophenyl)-1-[3-(4-pyridyl)phenyl]-2-(1-imidazolyl)ethanol] | 69
